Experimental data as given in PubChem BioAssay (NCI).
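Interpolation was linear, between the two tested concentrations surrounding the appropriate level; five concentrations were tested over 48 hours in 96-well plates. TGI denotes the concentration required for complete inhibition of growth.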

Experiments:
Assay in all cases: growth of human tumour cells (NCI), 48 h
[1] = tested on: 786-0 renal
[2] = tested on: A498 renal
[3] = tested on: A549 NSCLC
[4] = tested on: CAKI-1 renal
[5] = tested on: CCRF-CEM leukemia
[6] = tested on: COLO 205 colon
[7] = tested on: DLD-1 colon
[8] = tested on: DMS 114 small cell lung
[9] = tested on: DMS 273 small cell lung
[10] = tested on: EKVX NSCLC
[11] = tested on: HCC-2998 colon
[12] = tested on: HCT-116 colon
[13] = tested on: HCT-15 colon
[14] = tested on: HL-60(TB) leukemia
[15] = tested on: HOP-62 NSCLC
[16] = tested on: HOP-92 NSCLC
[17] = tested on: HT29 colon
[18] = tested on: IGROV1 ovarian
[19] = tested on: K-562 leukemia
[20] = tested on: KM12 colon
[21] = tested on: KM20L2 colon
[22] = tested on: LOX IMVI melanoma
[23] = tested on: LXFL 529 NSCLC
[24] = tested on: M14 melanoma
[25] = tested on: M19-MEL melanoma
[26] = tested on: MALME-3M melanoma
[27] = tested on: MOLT-4 leukemia
[28] = tested on: NCI-H226 lung
[29] = tested on: NCI-H23 lung
[30] = tested on: NCI-H460 lung
[31] = tested on: NCI-H522 lung
[32] = tested on: OVCAR-3 ovarian
[33] = tested on: OVCAR-4 ovarian
[34] = tested on: OVCAR-5 ovarian
[35] = tested on: OVCAR-8 ovarian
[36] = tested on: RPMI-8226 leukemia
[37] = tested on: RXF 393 renal
[38] = tested on: RXF-631 renal
[39] = tested on: SF-268 CNS
[40] = tested on: SF-295 CNS
[41] = tested on: SF-539 CNS
[42] = tested on: SK-MEL-5 melanoma
[43] = tested on: SK-OV-3 ovarian
[44] = tested on: SN12C renal
[45] = tested on: SNB-19 CNS
[46] = tested on: SNB-75 CNS
[47] = tested on: SNB-78 CNS
[48] = tested on: SR leukemia
[49] = tested on: SW-620 colon
[50] = tested on: TK-10 renal
[51] = tested on: U251 CNS
[52] = tested on: UACC-257 melanoma
[53] = tested on: UACC-62 melanoma
[54] = tested on: UO-31 renal
[55] = tested on: XF 498 CNS
[56] = tested on: ACHN renal
[57] = tested on: HOP-18 NSCLC
[58] = tested on: SK-MEL-2 melanoma
[59] = tested on: SK-MEL-28 melanoma

Measured: TGI

CC(C)(C)Sc1nnc(SC(C)(C)C)c2c(=O)[nH]nc(SC(C)(C)C)c12
21.2 µM: [39]
14.8 µM: [25]
21.3 µM: [9]
26.2 µM: [26]
17.2 µM: [42]
23.9 µM: [11]
22.6 µM: [32] | [41]
17.9 µM: [3]
15.9 µM: [12]
16.1 µM: [14]
10.5 µM: [33]
19.7 µM: [51] | [54]
23.1 µM: [23]
20.8 µM: [49]
24.2 µM: [22]
26.7 µM: [52]
32.5 µM: [43]
22.9 µM: [29]
27 µM: [15]
19.1 µM: [17] | [48]
22.8 µM: [7]
24.6 µM: [10]
16.4 µM: [13]
26.8 µM: [19]
19.5 µM: [30]
15.5 µM: [8]
22.2 µM: [53]
25.2 µM: [6]
24.3 µM: [46]
15.7 µM: [27]
12.2 µM: [36]
28.7 µM: [55]
16.9 µM: [34]
14.2 µM: [31] | [37]
28.5 µM: [28]
22.1 µM: [21] | [35]
22.3 µM: [1]
23.8 µM: [40] | [45]
25.8 µM: [47]
21.9 µM: [44]
28.1 µM: [5]
28.9 µM: [24]
22 µM: [18]
25.6 µM: [20]
20.5 µM: [38]
37.8 µM: [50]
27.1 µM: [2]
16.3 µM: [4]
14.1 µM: [16]

O=C(/C=C/C1C(=O)NC(=O)NC1=O)CC(=O)C(=O)Nc1cc(Cl)c(Cl)cc1Cl
not listed: [16] | [38]
> 100 µM: all other assays above

C/C(CC(=O)Nc1cccc([N+](=O)[O-])c1)=N\NC(=O)CC#N
not listed: [2] | [4] | [13] | [25] | [30] | [33] | [44] | [45] | [48] | [56] | [57]
> 100 µM: all other assays above

CC(=O)NC(CCCN(Cc1ccccc1)C(=O)N(C)N=O)C(=O)NCc1ccccc1 (stereo not given)
91 µM: [46]
not listed: [14] | [48] | [57]
> 100 µM: all other assays above

[Cl-].[Fe+2].c1ccc(-c2ccnc3c2ccc2c(-c4ccccc4)ccnc23)cc1.c1ccc(-c2ccnc3c2ccc2c(-c4ccccc4)ccnc23)cc1.c1ccc(-c2ccnc3c2ccc2c(-c4ccccc4)ccnc23)cc1
0.139 µM: [19]
0.39 µM: [2]
> 100 µM: [38] | [47]
